Measurements: paper PMC12180637, “Active peptides of TSP-1 inhibit retinal angiogenesis through the CD36 pathway in a rat model of choroidal neovascularization” (PLOS One, 2025)
Values joined by “and” are separate entries in the source; they are usually repeats but may differ in a detail not shown here. Identical values can stand only once. Square brackets hold non-standard residues; d marks the D form. Nva = CCC[C@H](N)C(=O)O; Sar = CNCC(=O)O

Columns and labels:
[1] = system: VEGF-induced angiogenesis; conditions: cited from earlier work
Text: (§1) Additionally, TSP-1 could interact with various ligands, including extrac ...

tumor growth = conditions: cited from earlier work; for apoptotic index of endothelial cells (in words): in vivo studies, mouse tumor models; for tumor growth (in words): syngeneic and xenograft mouse models
Text: as §1

[2] = system: CD36 knockdown RF/6A cells; assay: EdU assay in CD36 knockdown cells; format: cell-based; conditions: Fig 5 data, exogenous VEGF alone, single replicates (n = 4)
Procedure: The Cell Counting Kit-8 (CCK-8) from Proteintech (China) and 5-ethynyl-2′-deoxyuridine (EdU)-488™ kit from Beyotime (China) were employed for the assessment of the proliferative viability of RF/6A cell. Additionally, 10^4 cells were plated in 96-well plates. After 24 h of intervention, according to different groups, CCK-8 detection reagent was added, and the optical density was recorded at 450 nm during the following 4 h. Regarding the EdU assay, 2 × 10^4 cells were cultured in 24-well plates after 24 h of intervention according to different groups. Firstly, the EdU working solution (20μM) preheated at 37 ° C was combined with medium at the ratio of 1:1. Secondly, the cells were washed three times with (phosphate buffered saline) PBS after the fixing with 4% paraformaldehyde for 15 min. Subsequently, the samples were permeabilized with PBS that contained 0.3% Triton X-100 for 10 min, followed by three times of washing with PBS, after which the EdU detection was conducted. Whereafter, 100 μL Click reaction solution was added to each well and incubated at room temperature in the dark for 30 min, followed by washing again with PBS, the Click reaction solution configuration method was shown in Table 1. Finally, fluorescence detection was performed after nuclear staining by Hoechst 33342. […]

RF/6A cells [3] = assay: Flow cytometry, total apoptosis rate; format: cell-based
VEGF = assay: Western blot of VEGF in RF/6A cells; format: cell-based; conditions: exogenous VEGF 1 ng/mL
Procedure: (§2) Western blot analysis was employed in this study for the assessment of the expression levels of proteins. Total protein was extracted with Radioimmunoprecipitation (RIPA) buffer (Solarbio, China) that contained phenylmethanesulfonyl fluoride (PMSF), followed by separation by 10% sodium dodecyl sulfate–polyacrylamide gel electrophoresis (SDS-PAGE, Yazyme, China). Additionally, the constant pressure of 80 V was used for 40–50 min during the electrophoresis of the proteins in compression gel. Besides, the voltage was adjusted to 120 V after the entering of proteins to the separating gel. Subsequently, proteins were transferred onto a polyvinylidene difluoride (PVDF) membrane (Millipore, USA), and the operation time was determined according to the molecular weight of the protein (VEGF-55 min, CD31-91 min). The membrane was blocked with 5% non-fat milk for 2 h and incubated with primary antibodies overnight at 4 °C, and the primary antibody was diluted with Tris-Buffered Saline with Tween 20 (TBST) following the instructions. Subsequently, the samples were washed three times with TBST, incubated with the corresponding secondary antibody for 90 min at room temperature, and washed three times with TBST. Besides, Electrochemiluminescence (Invitrogen iBright™ FL1500) was used for the visualization of proteins, followed by the imaging analysis of the experimental results. […]

RF/6A cells [4] = assay: CCK-8 cell viability assay; format: cell-based; conditions: CCK-8, different concentrations of recombinant human VEGF165 (S2 Fig A)
Procedure: (§3) RF/6A cells were obtained from Cell Cook, China. The cells were maintained in minimum essential medium supplemented with 10% fetal Bovine serum (Viva Cell, China) and 1% penicillin-streptomycin solution (Viva Cell, China). Additionally, the samples were cultured in an incubator under the condition of 37 °C and 5% CO2.
(§4) The Cell Counting Kit-8 (CCK-8) from Proteintech (China) and 5-ethynyl-2′-deoxyuridine (EdU)-488™ kit from Beyotime (China) were employed for the assessment of the proliferative viability of RF/6A cell. Additionally, 10^4 cells were plated in 96-well plates. After 24 h of intervention, according to different groups, CCK-8 detection reagent was added, and the optical density was recorded at 450 nm during the following 4 h. Regarding the EdU assay, 2 × 10^4 cells were cultured in 24-well plates after 24 h of intervention according to different groups. Firstly, the EdU working solution (20μM) preheated at 37 ° C was combined with medium at the ratio of 1:1. Secondly, the cells were washed three times with (phosphate buffered saline) PBS after the fixing with 4% paraformaldehyde for 15 min. Subsequently, the samples were permeabilized with PBS that contained 0.3% Triton X-100 for 10 min, followed by three times of washing with PBS, after which the EdU detection was conducted. […] Finally, fluorescence detection was performed after nuclear staining by Hoechst 33342.

[5] = stated in brackets for the recombinant human VEGF165 protein used; no test or source described; cited from earlier work
Procedure: CCK-8 and EdU assays were conducted to evaluate the cellular proliferation after a 24 h exposure to exogenous VEGF, which was amined to analyze the impact of 10 μg/mL VR-13 peptide on RF/6A cell proliferation induced through exogenous VEGF.

CD31 = assay: Western blot of CD31 in RF/6A cells; format: cell-based; conditions: exogenous VEGF 1 ng/mL
Procedure: as §2

RF/6A cells [6] = assay: Wound-healing assay; format: cell-based; conditions: 1 ng/mL exogenous VEGF, 24 h
Procedure: as §3
After the drawing of 3 parallel lines at the external bottom surface of a 6-well plate, 4 × 10^5 RF/6A cells were seeded in it and incubated to a density of 80–90%. Next, scratches perpendicular to the drawn lines were made at the bottom of each well by a 200 μL pipette tip. Subsequently, the wells were rinsed three times with PBS to eliminate the floating cells. Whereafter, the medium was replaced with the serum that contained 1% fetal bovine. The wound healing process was assessed at the time point of 0 h and 24 h, alongside the acquirement of microscope images at 10× for the record and statistical analysis of the scratch distance. Additionally, the scratch healing rate was calculated as follows:
Scratch_healing_rate=0h_scratch_distance−24h_scratch_distance/0h_scratch_distance100% (1)

RF/6A cells [7] = assay: EdU proliferation assay; format: cell-based; conditions: Fig 2 data, 1 ng/mL exogenous VEGF alone, 24 h, single replicates (n = 4)
Procedure: as §3, §4

Ac-Sar-Gly-Val-Dallolle-Thr-Nva-Ile-Arg-Pro-NHEt [ABT-510, anti-angiogenic nonapeptide based on TSP-1 type I repeats]
VEGF-induced angiogenesis (in words) [1]: inhibit VEGF-induced angiogenesis | apoptotic index of endothelial cells (in words) (tumor growth): increase of the apoptotic index of endothelial cells | tumor growth (in words) (tumor growth): slow down the tumor growth

Ac-[Sar]GV[dI]T[Nva]IRP-NHEt [ABT-526, anti-angiogenic nonapeptide based on TSP-1 type I repeats]
apoptotic index of endothelial cells (in words) (tumor growth): increase of the apoptotic index of endothelial cells | tumor growth (in words) (tumor growth): slow down the tumor growth

VEGF
EdU positive(%) [2]: 24% and 28.99% and 30.32% and 23.72% | apoptosis rate (RF/6A cells [3]; Fig 3 data, RF/6A, 1 ng/mL exogenous VEGF alone, single replicates (n = 6)): 8.99 and 11.46 and 10.46 and 11.80 and 11.97 and 12.71 | apoptosis of RF/6A cells after exogenous VEGF (in words) (RF/6A cells [3]; exogenous VEGF): didn’t exhibit a connection with apoptosis | VEGF expression in RF/6A cells after exogenous VEGF (in words) (VEGF): significantly upregulated | optimal concentration for inducing significant proliferation of RF/6A (RF/6A cells [4]): 1 ng/mL | EC50 [5]: 0.3 to 3.75 ng/mL | CD31 expression in RF/6A cells after exogenous VEGF (in words) (CD31): significantly upregulated | migration of RF/6A cells exposed to VEGF (in words) (RF/6A cells [6]): strong cell migration ability | EdU positive(%) (RF/6A cells [7]): 37.99% and 38.36% and 36.47% and 33.64%
